One assay relates to NCI-H187. Briefly: Cytotoxicity against human NCI-H187 by resazurin microplate assay. The assay is classed as functional, cell-based.
The next assay deals with MCF7. Briefly: Cytotoxicity against human MCF7 cells by resazurin microplate assay. The assay is classed as functional, cell-based. On the technique in general: Alamar Blue is a resazurin reagent that responds to reducing activity.
Another assay deals with Vero. Briefly: Cytotoxicity against african green monkey Vero cells by green fluorescent protein microplate assay. The assay is classed as cell-based. Conditions: Chlorocebus sabaeus.
Another assay relates to KB. As to the kind of experiment: Cytotoxicity against human KB cells by resazurin microplate assay. In kind it is functional, cell-based.

Turning to `C=C[C@@]1(C)CCc2c3c(c(O)c(O[C@H]4O[C@H](CO)[C@@H](O)[C@H](O)[C@H]4O)c2[C@H]1O)C(C)(C)CCC3` [XYLOPIMARANE], the IC50 (as a rule, the point on the concentration scale where inhibition reaches its midpoint) came out at 65 µM in the assay with NCI-H187, 13 µM in the assay with MCF7, 41 µM with Vero and 1 µM in the assay with KB.
